Test results taken from ChEMBL document CHEMBL5500425, “Designing Small Molecule PI3Kγ Inhibitors: A Review of Structure-Based Methods and Computational Approaches” (J Med Chem, 2024).
Each block holds one compound with its values, some of them ahead of it.

Columns and labels:
[1] = target: T1, Phosphatidylinositol 4,5-bisphosphate 3-kinase catalytic subunit delta isoform (Homo sapiens, UniProt O00329); experiment: Inhibition of P13Kdelta (unknown origin) in the presence of ATP by scintillation proximity assay
T1 sequence (O00329 whole entry): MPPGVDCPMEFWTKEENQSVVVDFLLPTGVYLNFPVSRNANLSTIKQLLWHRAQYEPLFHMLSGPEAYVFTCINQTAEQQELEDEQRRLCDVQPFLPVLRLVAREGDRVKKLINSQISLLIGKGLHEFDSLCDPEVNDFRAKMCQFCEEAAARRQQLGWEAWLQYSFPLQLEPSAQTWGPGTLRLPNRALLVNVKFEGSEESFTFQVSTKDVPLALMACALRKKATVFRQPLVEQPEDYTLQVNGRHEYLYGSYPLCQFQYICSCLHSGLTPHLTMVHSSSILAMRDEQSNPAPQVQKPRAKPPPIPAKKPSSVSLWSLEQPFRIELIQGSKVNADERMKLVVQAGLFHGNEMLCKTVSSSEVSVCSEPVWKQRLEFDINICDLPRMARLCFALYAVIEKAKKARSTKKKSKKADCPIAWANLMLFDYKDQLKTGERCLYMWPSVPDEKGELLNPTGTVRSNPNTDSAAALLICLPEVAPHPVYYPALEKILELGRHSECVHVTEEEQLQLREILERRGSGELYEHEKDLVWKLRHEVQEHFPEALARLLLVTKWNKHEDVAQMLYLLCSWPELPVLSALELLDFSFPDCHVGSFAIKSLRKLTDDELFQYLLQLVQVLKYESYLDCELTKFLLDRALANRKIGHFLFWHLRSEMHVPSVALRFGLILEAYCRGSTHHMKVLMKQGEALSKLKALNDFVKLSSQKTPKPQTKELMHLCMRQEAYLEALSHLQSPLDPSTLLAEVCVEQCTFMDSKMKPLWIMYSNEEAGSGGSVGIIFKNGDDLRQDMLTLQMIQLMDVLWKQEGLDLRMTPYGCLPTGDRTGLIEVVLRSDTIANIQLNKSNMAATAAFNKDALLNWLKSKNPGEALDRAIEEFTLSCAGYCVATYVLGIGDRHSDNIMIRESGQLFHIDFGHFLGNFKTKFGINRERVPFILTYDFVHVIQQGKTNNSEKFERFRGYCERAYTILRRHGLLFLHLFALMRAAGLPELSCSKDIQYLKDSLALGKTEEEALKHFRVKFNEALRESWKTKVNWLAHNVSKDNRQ

[2] = target: T2, Phosphatidylinositol 4,5-bisphosphate 3-kinase catalytic subunit gamma isoform (Homo sapiens, UniProt P48736); experiment: Inhibition of PI3Kgamma (unknown origin)
Target sequence in this assay (P48736 whole entry, canonical isoform): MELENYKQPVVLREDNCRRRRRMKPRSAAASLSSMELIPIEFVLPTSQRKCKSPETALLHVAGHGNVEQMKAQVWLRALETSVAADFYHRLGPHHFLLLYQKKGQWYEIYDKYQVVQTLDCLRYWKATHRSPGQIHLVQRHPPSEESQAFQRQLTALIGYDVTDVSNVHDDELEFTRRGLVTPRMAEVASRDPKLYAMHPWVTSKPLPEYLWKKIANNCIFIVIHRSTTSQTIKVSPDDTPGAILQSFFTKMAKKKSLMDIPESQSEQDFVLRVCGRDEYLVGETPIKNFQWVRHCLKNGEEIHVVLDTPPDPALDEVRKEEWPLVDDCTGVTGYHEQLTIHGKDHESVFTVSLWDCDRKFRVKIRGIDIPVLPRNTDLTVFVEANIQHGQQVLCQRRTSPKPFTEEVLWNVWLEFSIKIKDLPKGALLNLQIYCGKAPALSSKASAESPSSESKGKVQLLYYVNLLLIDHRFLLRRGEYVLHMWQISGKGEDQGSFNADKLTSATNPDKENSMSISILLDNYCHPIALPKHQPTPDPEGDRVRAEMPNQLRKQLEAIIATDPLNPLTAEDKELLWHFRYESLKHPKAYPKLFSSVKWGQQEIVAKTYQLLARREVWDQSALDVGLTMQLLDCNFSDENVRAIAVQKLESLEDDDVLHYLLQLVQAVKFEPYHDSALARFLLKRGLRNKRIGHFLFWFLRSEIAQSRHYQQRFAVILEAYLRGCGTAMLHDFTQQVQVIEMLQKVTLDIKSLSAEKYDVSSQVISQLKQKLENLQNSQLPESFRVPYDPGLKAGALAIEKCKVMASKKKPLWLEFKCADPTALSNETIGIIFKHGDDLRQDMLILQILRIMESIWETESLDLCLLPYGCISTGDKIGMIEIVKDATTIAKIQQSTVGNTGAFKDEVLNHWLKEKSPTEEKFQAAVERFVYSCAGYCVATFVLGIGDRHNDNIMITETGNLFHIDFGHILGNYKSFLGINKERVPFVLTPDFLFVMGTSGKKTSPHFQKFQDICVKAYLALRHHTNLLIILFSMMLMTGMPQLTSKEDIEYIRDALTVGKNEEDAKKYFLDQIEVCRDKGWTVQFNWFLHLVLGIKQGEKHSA

[3] = target: T1, Phosphatidylinositol 4,5-bisphosphate 3-kinase catalytic subunit delta isoform; experiment: Inhibition of PI3Kdelta (unknown origin)
[4] = target: T2, Phosphatidylinositol 4,5-bisphosphate 3-kinase catalytic subunit gamma isoform; experiment: Inhibition of human recombinant PI3Kgamma using phosphatidylinositol as substrate in presence of [gamma33P]ATP by scintillation proximity assay
Target sequence in this assay (P48736 whole entry, looked up, canonical isoform): as the sequence (P48736 whole entry, canonical isoform) above

[5] = Oral bioavailability in rat at 10 mg/kg; format: ADME, organism-based; details: in vivo
[6] = Inhibition of P13Kalpha (unknown origin) in the presence of ATP by scintillation proximity assay
[7] = Clearance in Beagle Dog at 1 micromol/kg, iv; format: ADME, Canis lupus familiaris; details: in vivo, dose 1 µmol/kg
[8] = Oral bioavailability in Beagle dog at 2 mg/kg; format: ADME, organism-based, Canis lupus familiaris; details: in vivo
[9] = target: Phosphatidylinositol 4,5-bisphosphate 3-kinase catalytic subunit alpha isoform (Homo sapiens, UniProt P42336); experiment: Inhibition of PI3Kalpha (unknown origin) using […] as substrate preincubated for 10 mins followed by substrate addition by microplate reader analysis
[10] = target: Phosphatidylinositol 4,5-bisphosphate 3-kinase catalytic subunit beta isoform (Homo sapiens, UniProt P42338); experiment: Inhibition of PI3Kbeta (unknown origin)
[11] = Inhibition of P13Kalpha (unknown origin)
[12] = target: T2, Phosphatidylinositol 4,5-bisphosphate 3-kinase catalytic subunit gamma isoform; experiment: Inhibition of human PI3Kgamma expressed in baculovirus infected Sf21 insect cells by ADP-Glo assay
Target sequence in this assay (P48736 whole entry, canonical isoform): as above

[13] = target: T1, Phosphatidylinositol 4,5-bisphosphate 3-kinase catalytic subunit delta isoform; experiment: Inhibition of human PI3Kdelta expressed in baculovirus infected Sf21 insect cells by ADP-Glo assay

Sequence of Phosphatidylinositol 4,5-bisphosphate 3-kinase catalytic subunit beta isoform (P42338 whole entry, canonical isoform): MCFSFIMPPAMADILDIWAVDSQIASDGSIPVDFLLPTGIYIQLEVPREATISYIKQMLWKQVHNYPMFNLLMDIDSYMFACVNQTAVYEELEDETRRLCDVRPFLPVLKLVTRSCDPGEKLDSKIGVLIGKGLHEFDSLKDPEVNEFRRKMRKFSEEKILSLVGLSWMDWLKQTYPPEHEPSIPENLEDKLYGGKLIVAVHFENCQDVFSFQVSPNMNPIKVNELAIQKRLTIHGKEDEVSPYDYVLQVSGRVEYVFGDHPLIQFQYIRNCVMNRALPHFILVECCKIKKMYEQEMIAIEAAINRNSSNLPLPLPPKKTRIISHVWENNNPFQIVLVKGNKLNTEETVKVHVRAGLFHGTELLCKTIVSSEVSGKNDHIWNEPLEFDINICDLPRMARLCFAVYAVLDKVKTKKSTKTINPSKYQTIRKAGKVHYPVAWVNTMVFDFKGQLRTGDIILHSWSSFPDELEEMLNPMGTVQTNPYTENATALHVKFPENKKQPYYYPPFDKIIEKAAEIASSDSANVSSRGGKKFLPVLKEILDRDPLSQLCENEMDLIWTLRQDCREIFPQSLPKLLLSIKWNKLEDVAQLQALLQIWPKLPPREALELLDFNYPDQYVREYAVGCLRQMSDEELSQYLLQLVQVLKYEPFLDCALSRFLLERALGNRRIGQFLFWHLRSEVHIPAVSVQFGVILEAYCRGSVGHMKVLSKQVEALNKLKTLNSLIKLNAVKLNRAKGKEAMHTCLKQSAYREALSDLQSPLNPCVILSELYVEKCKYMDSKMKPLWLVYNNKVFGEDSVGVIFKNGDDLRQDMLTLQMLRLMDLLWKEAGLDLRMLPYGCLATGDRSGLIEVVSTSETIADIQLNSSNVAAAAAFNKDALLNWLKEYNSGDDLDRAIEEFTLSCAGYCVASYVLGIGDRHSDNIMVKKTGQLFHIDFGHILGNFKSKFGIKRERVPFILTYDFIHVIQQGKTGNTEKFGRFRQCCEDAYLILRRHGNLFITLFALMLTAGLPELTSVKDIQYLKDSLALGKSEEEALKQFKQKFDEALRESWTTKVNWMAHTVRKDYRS
Sequence of Phosphatidylinositol 4,5-bisphosphate 3-kinase catalytic subunit alpha isoform (P42336 whole entry, canonical isoform): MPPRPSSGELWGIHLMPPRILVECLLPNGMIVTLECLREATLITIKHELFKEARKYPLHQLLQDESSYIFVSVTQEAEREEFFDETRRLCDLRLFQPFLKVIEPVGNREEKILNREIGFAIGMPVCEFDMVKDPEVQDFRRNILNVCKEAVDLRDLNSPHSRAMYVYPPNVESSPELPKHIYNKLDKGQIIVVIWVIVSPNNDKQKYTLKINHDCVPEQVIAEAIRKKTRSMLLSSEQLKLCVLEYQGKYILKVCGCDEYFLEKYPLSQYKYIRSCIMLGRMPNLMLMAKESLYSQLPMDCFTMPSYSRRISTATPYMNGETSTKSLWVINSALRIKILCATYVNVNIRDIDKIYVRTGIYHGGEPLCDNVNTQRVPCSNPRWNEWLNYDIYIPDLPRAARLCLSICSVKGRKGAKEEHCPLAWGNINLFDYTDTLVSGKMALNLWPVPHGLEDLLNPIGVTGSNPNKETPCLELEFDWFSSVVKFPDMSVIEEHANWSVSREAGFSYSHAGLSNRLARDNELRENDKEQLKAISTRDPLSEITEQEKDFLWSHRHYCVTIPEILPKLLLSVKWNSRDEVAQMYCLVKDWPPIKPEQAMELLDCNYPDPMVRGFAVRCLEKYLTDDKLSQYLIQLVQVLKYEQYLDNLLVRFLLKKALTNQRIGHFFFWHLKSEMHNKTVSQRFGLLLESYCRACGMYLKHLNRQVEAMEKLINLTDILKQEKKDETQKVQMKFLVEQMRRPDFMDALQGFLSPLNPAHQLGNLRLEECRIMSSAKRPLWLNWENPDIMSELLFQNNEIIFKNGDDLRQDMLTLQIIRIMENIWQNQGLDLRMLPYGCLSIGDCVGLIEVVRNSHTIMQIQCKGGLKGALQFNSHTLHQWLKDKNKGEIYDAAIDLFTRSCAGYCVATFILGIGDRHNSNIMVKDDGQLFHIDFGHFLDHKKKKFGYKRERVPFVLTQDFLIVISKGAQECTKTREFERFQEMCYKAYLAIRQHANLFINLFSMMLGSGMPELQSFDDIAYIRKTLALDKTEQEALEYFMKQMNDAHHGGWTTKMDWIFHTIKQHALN

IC50 [1]: ≤ 500 nM
SMILES: Cc1cc(S(=O)(=O)N[C@H]2CC[C@H](O)CC2)ccc1-c1cnc2c(N)c(Cl)ccn12

IC50 [2]: < 100 nM | IC50 [3]: < 2000 nM
SMILES: CC(NC(=O)c1c(N)nn2cccnc12)c1cc(Cl)c2c(C#N)ncn2c1N1CCS(=O)(=O)C(C)C1 (stereo unspecified)

IC50 [4]: 40 nM | bioavailability [5]: 72% | IC50 [6]: 300 nM
SMILES: Cc1ncc(-c2cc(-c3ccc(S(=O)(=O)NCC(C)(C)O)cc3C)cnc2N)o1

clearance [7]: 3.3 mL/min/kg | bioavailability [8]: 82%
SMILES: CC(=O)Nc1nc(C)c(-c2cc3c(c(S(C)(=O)=O)c2)C(=O)N([C@@H](C)C2CC2)C3)s1

IC50 [1]: > 500 nM
SMILES: Clc1ccc(Cn2cc(-c3ccnc(-c4ncc(-c5ccccc5)[nH]4)c3)cn2)cc1

IC50 [1]: < 2000 nM
SMILES: Cc1nc(N)c2ncc(-c3cc(C(C)(O)CC(F)(F)F)ccc3C)n2n1 (stereo unspecified)

IC50 [4]: 24 nM | bioavailability [5]: 23% | IC50 [6]: 110 nM
SMILES: Cc1cc(S(=O)(=O)N[C@H]2CC[C@H](O)CC2)ccc1-c1cnc(N)c(C(=O)C2CC2)n1

IC50 [1]: < 2000 nM
SMILES: Cc1nnc(-c2cc(-c3cc4c(c(S(C)(=O)=O)c3)C(=O)N([C@@H](C)C3CC3)C4)ccn2)[nH]1

IC50 [1]: < 2000 nM | IC50 [4]: ≤ 100 nM
SMILES: Cc1cc(C(O)(CO)C(F)F)ccc1-c1cnc(N)c(C(=O)N2CC[C@H](CO)C2)n1 (stereo partly specified)

IC50 [9]: 172 nM
SMILES: CC1(CCn2nc(-c3ccc(Cl)c(O)c3)c3c(N)ncnc32)COC1

IC50 [10]: > 20000 nM | IC50 [11]: > 20000 nM
SMILES: CC(=O)c1c(C)n(-c2ccc(C)cc2)c2ccc(OCC(O)CNCc3ccc(Cl)cc3)cc12 (stereo unspecified)

IC50 [12]: < 250 nM | IC50 [13]: ≥ 5000 nM
SMILES: COc1cncc(-c2ccc3nc(-c4nc5c(C)cccc5[nH]4)oc3c2)c1
